{"source": "paper PMC10687071", "about": "(The Journal of Biological Chemistry, 2023)", "key": {"[1]": {"biological_target": "T1, V80G mutant EAG1 channels (Mus musculus, UniProt Q60603, V80G)", "T1 construct": "expressed in transfected cells; host or cells: Xenopus laevis oocytes injected with cRNA", "T1 sequence (Q60603 1-989 V80G)": "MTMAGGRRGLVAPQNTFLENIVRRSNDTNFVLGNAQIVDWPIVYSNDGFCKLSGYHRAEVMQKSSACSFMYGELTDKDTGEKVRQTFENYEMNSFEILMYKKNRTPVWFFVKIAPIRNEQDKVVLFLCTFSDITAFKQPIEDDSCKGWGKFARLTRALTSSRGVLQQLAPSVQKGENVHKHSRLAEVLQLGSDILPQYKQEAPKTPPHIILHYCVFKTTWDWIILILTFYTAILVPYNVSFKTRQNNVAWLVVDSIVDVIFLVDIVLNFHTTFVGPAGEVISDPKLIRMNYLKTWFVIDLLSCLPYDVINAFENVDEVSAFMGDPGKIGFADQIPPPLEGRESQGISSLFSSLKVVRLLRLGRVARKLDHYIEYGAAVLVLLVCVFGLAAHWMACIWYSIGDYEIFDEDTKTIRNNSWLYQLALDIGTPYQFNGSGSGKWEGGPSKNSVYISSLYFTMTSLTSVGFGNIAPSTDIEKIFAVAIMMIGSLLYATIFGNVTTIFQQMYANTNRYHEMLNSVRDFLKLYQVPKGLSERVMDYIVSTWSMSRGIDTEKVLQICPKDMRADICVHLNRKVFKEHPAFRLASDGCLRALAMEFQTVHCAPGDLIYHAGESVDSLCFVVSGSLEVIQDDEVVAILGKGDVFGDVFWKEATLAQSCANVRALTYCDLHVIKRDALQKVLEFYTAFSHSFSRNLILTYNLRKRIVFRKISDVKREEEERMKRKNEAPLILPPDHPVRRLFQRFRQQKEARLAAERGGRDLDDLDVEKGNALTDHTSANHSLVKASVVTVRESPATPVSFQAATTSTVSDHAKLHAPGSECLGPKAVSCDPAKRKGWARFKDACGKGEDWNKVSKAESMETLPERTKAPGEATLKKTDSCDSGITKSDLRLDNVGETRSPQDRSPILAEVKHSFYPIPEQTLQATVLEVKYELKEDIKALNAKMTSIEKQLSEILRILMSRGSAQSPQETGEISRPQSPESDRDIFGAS", "test": "TEVC recording, imipramine inhibition, V80G mutant", "format": "cell-based", "settings": "V80G mutant EAG1 channel, +50 mV", "description": "(§1) The cDNA encoding wild-type (WT) mouse EAG1 channels in pGH19 vector was kindly provided by G. Robertson (University of Wisconsin-Madison, Madison, WI). The mutant ΔPAS EAG1 channel in pGH19 with the deletion of the PAS domain residues 2 to 130 was generated by Bio Basic Inc and verified by DNA sequencing (Genewiz). Mutant EAG1 channels with single amino acid substitutions were generated by Genewiz and verified by DNA sequencing. cRNA was transcribed using the T7 mMessage mMachine kit (Thermo Fisher Scientific). Defolliculated Xenopus laevis oocytes were purchased from Ecocyte Bioscience or Xenopus1 and injected with the cRNA using a Nanoinject II oocyte injector (Drummond).\n(§2) For EAG1 current recordings, oocytes were placed into a handmade chamber containing a bath solution for the current recording. The currents were recorded using a TEVC technique with OC-725C amplifier (Warner Instruments) and pClamp11 software (Molecular Devices). The signals were digitized using Digidata 1550 (Molecular Devices). Patch pipettes were pulled from borosilicate glass and had resistances of 0.7 to 1.5 MΩ. The recording (bath) solution contained 96 mM NaCl, 4 mM KCl, 0.1 mM CaCl2, 1.8 mM MgCl2, and 5 mM HEPES, pH 7.5. The pipette solution contained 3 M KCl. […]"}, "[2]": {"biological_target": "T2, Y71F mutant EAG1 channels (Mus musculus, UniProt Q60603, Y71F)", "T2 construct": "expressed in transfected cells; host or cells: Xenopus laevis oocytes injected with cRNA", "T2 sequence (Q60603 1-989 Y71F)": "T1 sequence (Q60603 1-989 V80G) with Y71F, G80V", "test": "TEVC recording, imipramine inhibition, Y71F mutant", "format": "cell-based", "settings": "Y71F mutant EAG1 channel, +50 mV", "description": "as §1, §2"}}, "note": "Where a chain is given by its changes, count along the chain named.", "data": [{"compound": "CN(C)CCCN1c2ccccc2CCc2ccccc21", "note": "[imipramine]", "values": [{"measurement": "IC50", "setting": "[1]", "value": "57.1 ± 3.1", "unit": "µM"}, {"measurement": "IC50", "setting": "[2]", "value": "58 ± 3.7", "unit": "µM"}]}]}
